{"source": "patent US20120294937A1", "about": "“NEW PHARMACEUTICAL DOSAGE FORM FOR THE TREATMENT OF GASTRIC ACID-RELATED DISORDERS” (NOVARTIS AG, priority 2009, published 2012)", "origin": "cited, not measured here", "system": "stomach acid pH", "data": [{"compound": "NC(N)=Nc1nc(CSCCC(N)=NS(N)(=O)=O)cs1", "note": "[famotidine]", "values": [{"measurement": "time stomach acid controlled at pH>4", "setting": "Day 1, clinical setting", "result": "54 % of the day"}, {"measurement": "percentage of time controlling stomach acid", "setting": "Day 8, steady state for omeprazole reached, clinical setting", "result": "48 % of the day"}]}]}
